According to patent US6472433B2, “Method for treatment of inflammation with R-NSAIDS” (Loma Linda University Medical Center, priority 1999, dated 2002):

What was measured:
[1] = test system: carrageenan-induced paw edema; assay: Carrageenan paw test (hind paw edema, plethysmometer); type: in vivo, male Long Evans derived rats; settings: for Result (Reduction of Edema): 1 h before carrageenan, paw volume 3 h after injection
Description: In this test, the test compound is administered to several rats. Thereafter, a paw on each rat is injected with a solution of carrageenan in order to induce edema in the paw as a measure of inflammation. After three hours, the volume of the paw is measured using a plethysmometer. Reduction of edema by 30% or more, as compared to a control group which was not given the test compound, is considered indicative of anti-inflammatory activity.
This very pure form of R-flurbiprofen, was tested for anti-inflammatory activity by the carrageenan paw test. Seven groups of eight male Long Evans derived rats weighing 150±20 grams were fasted overnight. One hour after oral administration a suspension of the test substance in 2% Tween 80, as documented in Table 1 below, the right hind paw of each rat was injected intraplantarly with 0.1 ml of a 1% suspension of carrageenan. Three hours after injection, the hind paw volume was measured using a plethysmometer and recorded.

[2] = test system: carrageenan-induced paw edema; settings: cited from earlier work; for reduction of edema: dosage of 0.3 mg/kg, enantiomeric purity not disclosed
[3] = humans; cited from earlier work

C[C@@H](C(=O)O)c1ccc(-c2ccccc2)c(F)c1 [R-Flurbiprofen, R-flurbiprofen]
Anti-Inflammatory Activity ([1]; 5 mg/kg oral): Yes (Reduction of edema by 30% or more, as compared to a control group which was not given the test compound, is considered indicative of anti-inflammatory activity) | Result (Reduction of Edema) ([1]; 5 mg/kg oral): 30% | Anti-Inflammatory Activity ([1]; 10 mg/kg oral): Yes (Reduction of edema by 30% or more, as compared to a control group which was not given the test compound, is considered indicative of anti-inflammatory activity) | Result (Reduction of Edema) ([1]; 10 mg/kg oral): 41% | Anti-Inflammatory Activity ([1]; 20 mg/kg oral): Yes (Reduction of edema by 30% or more, as compared to a control group which was not given the test compound, is considered indicative of anti-inflammatory activity) | Result (Reduction of Edema) ([1]; 20 mg/kg oral): 47% | Anti-Inflammatory Activity ([1]; 40 mg/kg oral): Yes (Reduction of edema by 30% or more, as compared to a control group which was not given the test compound, is considered indicative of anti-inflammatory activity) | Result (Reduction of Edema) ([1]; 40 mg/kg oral): 51% | reduction of edema [2]: 18% | reduction in inflammation ([2]; highest dose, 2.5 mg/kg (not at 0.1, 0.3, 1 mg/kg)): statistically significant reduction in inflammation | S-enantiomer in circulation at steady state (formed by inversion of the R-enantiomer) [3]: 1.5%

O=C(c1ccccc1)c1ccc2n1CC[C@H]2C(=O)O [R-ketorolac]
S-enantiomer in circulation at steady state (formed by inversion of the R-enantiomer) [3]: 6%

C[C@H](C(=O)O)c1ccc(-c2ccccc2)c(F)c1 [S-flurbiprofen, reference compound]
reduction of edema [2]: 64%

CC(=O)Oc1ccccc1C(=O)O [Aspirin, reference compound]
Anti-Inflammatory Activity ([1]; 150 mg/kg oral): Yes (Reduction of edema by 30% or more, as compared to a control group which was not given the test compound, is considered indicative of anti-inflammatory activity) | Result (Reduction of Edema) ([1]; 150 mg/kg oral): 42%

CCc1cccc2c3c([nH]c12)[C@@](CC)(CC(=O)O)OCC3 [R-etodolac]
S-enantiomer in circulation at steady state (formed by inversion of the R-enantiomer) [3]: 0%
